Measured values reported in patent publication US20210315921A1, “Compounds and Methods for Modifying iAge” (Edifice Health, Inc,, priority 2020, published 2021).

B1: MIG: recombinant mouse MIG (R&D systems, catalog number 492-MM), monokine induced by gamma interferon (protein, UniProt P18340 22-126, looked up)
C-X-C motif chemokine 9: TLVIRNARCSCISTSRGTIHYKSLKDLKQFAPSPNCNKTEIIATLKNGDQTCLDPDSANVKKLMKEWEKKISQKKKQKRGKKHQKNMKNRKPKTPQSRRRSRKTT

Key:
estrogen levels = conditions: while raising testosterone levels; cited from earlier work
Mouse thoracic aortas = test: Acetylcholine relaxation of mouse thoracic aortic rings after exposure to MIG (wire myograph); conditions: mouse thoracic aortic sections, precontracted with U46619, increasing concentrations of recombinant mouse MIG
Protocol: Mouse thoracic aortas were carefully dissected, and vessels were cut into small rings and mounted on an isometric wire myograph chambers (Danish Myo Technology) and subjected to a normalization protocol. Following normalization, the vessels were incubated with either PBS or different concentrations of recombinant mouse MIG (R&D systems, catalog number 492-MM). A concentration-dependent contraction curve was created by accumulative application of the prostaglandin agonist U46619. Subsequently, concentration-dependent relaxation curves of Acetylcholine were conducted on these vessels and percent relaxation calculated for each dose.

Row | Molecule | reduction of estrogen levels (estrogen levels) [%] | effect on vasorelaxation to Acetylcholine (Mouse thoracic aortas)
1 | N#Cc1ccc(C(c2ccc(C#N)cc2)n2cncn2)cc1 [Letrozole] | 98 | –
2 | B1 | – | dose-dependent effect on vasorelaxation
